Experimental data reported in patent US11168087B2, “Substituted imidazo[1,2-b]pyridazines, substituted imidazo[1,5-b]pyridazines, related compounds, and their use in the treatment of medical disorders” (BIAL—R&D Investments, S.A., priority 2016, dated 2021).
Converted amounts (≈) assume the structure as drawn.

How the values were obtained:
[1] = molecular target: T1, glucocerebrosidase (Gcase) (Homo sapiens, UniProt P04062); experiment: Glucocerebrosidase (Gcase) activation assay, 4-methylumbelliferyl-beta-D-glucopyranoside substrate, with saposin C; type: biochemical; conditions: 0.25 h; for activation at 0.1 µM: read-out: Percent Gcase Activation 0.1 μM Test Compound; for activation at 1 µM: read-out: Percent Gcase Activation 1 μM Test Compound
T1 construct: micellar solution containing 10 nM GCase and 100 nM saposin C
T1 sequence (P04062 40-536): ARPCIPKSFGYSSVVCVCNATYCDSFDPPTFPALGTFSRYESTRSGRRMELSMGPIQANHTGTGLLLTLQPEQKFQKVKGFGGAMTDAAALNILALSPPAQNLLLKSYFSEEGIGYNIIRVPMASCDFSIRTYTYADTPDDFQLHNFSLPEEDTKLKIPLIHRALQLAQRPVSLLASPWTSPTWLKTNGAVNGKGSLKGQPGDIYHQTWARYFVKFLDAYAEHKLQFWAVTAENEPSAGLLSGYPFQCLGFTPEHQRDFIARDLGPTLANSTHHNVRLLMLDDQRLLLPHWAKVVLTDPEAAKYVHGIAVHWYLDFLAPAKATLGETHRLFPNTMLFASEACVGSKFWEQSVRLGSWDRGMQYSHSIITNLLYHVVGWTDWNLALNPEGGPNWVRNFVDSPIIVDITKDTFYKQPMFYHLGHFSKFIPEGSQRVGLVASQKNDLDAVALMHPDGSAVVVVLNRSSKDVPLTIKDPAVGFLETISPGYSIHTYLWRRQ
How it was run: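 Human GCase (10 nM) with 100 nM saposin C in Triton X-100/phosphatidylserine micelles, citrate-phosphate pH 4.7, preincubated with compound 30 min RT; 2 mM 4-MU-β-glucoside (substrate solution) added, 15 min RT, stopped with glycine pH 12.5, fluorescence 365/440 nm. Screened at 1.0 and 0.1 μM; 8-point curves from 5 μM top.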

[2] = Compound solubility in water; type: physicochemical

Structure (SMILES)	activation at 0.1 µM [1] [%]	activation at 1 µM [1] [%]	solubility [2] [µg/mL]
Cc1cc(-c2cccnc2)nc2c(C(=O)NC(C)(C)C3CC3)nsc12	< 5	5 to 20	0.7 (≈ 1.99 µM)
CCCCCCOC1CCC(NC(=O)c2ncc3c(C)cc(C)nn23)CC1 (centres unmarked)	5 to 20	> 20	23.1 (≈ 62 µM)
Cc1cc(N2CC(C(C)C)OC2=O)nn2c(C(=O)N[C@H](C3CC3)C(F)(F)F)cnc12 (stereo partly drawn) [N—((R)-1-Cyclopropyl-2,2,2-trifluoroethyl)-6-(5-isopropyl-2-oxooxazolidin-3-yl)-8-methylimidazo[1,2-b]pyridazine-3-carboxamide]	5 to 20	> 20	
COc1cccc(-c2cc(C)c3snc(C(=O)N[C@@H](C)C4CC4)c3n2)n1	< 5	5 to 20	
Cc1cc(-c2cccnc2)nc2c(C(=O)NC(C3CC3)C(F)(F)F)csc12 (centres unmarked)	> 20	> 20	
Cc1cc(-c2cncc(Cl)c2)nn2c(C(=O)N[C@@H](C3CC3)C(F)(F)F)ncc12 [(S)-2-(5-Chloropyridin-3-yl)-N-(1-cyclopropyl-2,2,2-trifluoroethyl)-4-methylimidazo[1,5-b]pyridazine-7-carboxamide]	5 to 20	> 20	
